Numbered stars: 1 amine (or outer) side, 2 acyl side, 3 side chain; on linkers, the order of the positions; unused ones are H or OH. Square brackets hold non-standard residues; d marks the D form. Peptide text beside a SMILES is read from it. N(2-(2-PhOPh)Et)Gly = O=C(O)CNCCc1ccccc1Oc1ccccc1; Gly(N-3,5-(OMe)2-Ph) = COc1cc(NCC(=O)O)cc(OC)c1; X1 = COc1ccc([C@H](C)N(CC(=O)[*:2])[*:1])cc1; N((CH2)3OiPr)Gly = CC(C)OCCCNCC(=O)O
Assays:
[1] = tested on: TOP-Flash Wnt luciferase reporter; assay: TOP-Flash Wnt luciferase reporter assay in LNCaP-abl cells; format: cell-based
From the text: Using a TOP-Flash Wnt luciferase reporter, we tested the 12 oligomers identified from in silico modeling for inhibitory activity (Fig. 2b). […] We also employed a 3 × -Androgen Response Element (ARE) luciferase reporter to measure the effect on AR activity. […] As additional controls, we obtained previously developed, commercially available Wnt inhibitors and tested them in the Wnt luciferase assay (Supplementary Fig. 5).
We next characterized the dose response curves for compound 13 in the Wnt and AR luciferase reporters. The linear version of 13 (linear 13: NH2-|N-mpp, N-dmp, N-ipp, N-Smpe, N-Smpe, D-Ala|-OH) was used as a control compound. […] To test direct binding, we pre-formed dynamic light scattering (DLS) with β-catenin in the presence of vehicle, compound 13, and α-cyclodextrin. […] HEK293 cells were transiently transfected with a plasmid expressing full length, myc-tagged TCF4. After 48 h treatment with either vehicle (DMSO) or 10 µM 13, cells were lysed and myc-TCF4 protein was immunoprecipitated.
LNCaP-abl and LNCaP-95 cells were cultured in indicator free RPMI 1640 media (Life) supplemented with 10% charcoal stripped FBS, 1% pennicillin/streptomycin, and 1% L-Glutamine. HEK-293 Cells were cultured in DMEM media (Life) supplemented with 10%FBS and 1% pennicillin/streptomycin. A549 and U2OS cells were cultured in RPMI 1640 media (Life) and McCoy’s 5 A modified media (Life), respectively, both supplemented with 10%FBS and 1% pennicillin/streptomycin. LNCaP-abl, and LNCaP-95 cell lines were generous gifts from Z. Culig (Innsbruck Medical University, Austria) and J. Isaacs (Johns Hopkins University, Baltimore, MD), respectively. Cell lines were authenticated by STR profiling (Genetica Cell Line Testing; Burlington, NC). A549 and U2OS were purchased from ATCC (product numbers CCL-185 and HTB-96). Cell lines were routinely screened for mycoplasma. Luciferase assays were conducted using stably transfected TOP-flash and 3xARE LNCaP-abl cell lines. For the Wnt pathway, TOP-Flash LNCaP-abl cells were treated with 1 nM siAPC (a 1:1:1 mix of Ambion Silencer Silect siAPC RNA, ID#s s1433, s1434, s1435) for 24 h and seeded into 384-well plates at 5000 cells/well, followed by 24 h of treatment with compound. For the AR-pathway, 3xARE LNCaP-abl cells were seeded into 384-well plates at 5000 cells per well, treated for 48 h with compound, with the addition of R1881 for the final 8 h. Both were measured using the ONE-Glo detection kit (Promega) and data is standardized to CellTiter-Fluor (Promega) viability readings to account for potential variations in well to well cell number. Control Wnt inhibitors were purchased from Sigma with the exception of PRI-724 which was purchased from Selleckchem. Co-immunoprecipitation was carried out using HEK293 cells transfected with either myc-TCF (addgene #32738) or myc-TCF dominant negative (addgene #32739) followed by 48 h of treatment with compound. Cells were lysed using Triton lysis buffer and 1 mg total protein was incubated overnight at 4 C with 40 µl anti-cMyc magnetic beads (Thermo). Total protein concentration in cell lysates were determined using Pierce Rapid Gold BCA Protein Assay Kit (Thermo). The beads were washed 3× with lysis buffer then boiled in 2X sample loading dye. SDS-PAGE and western blotting were performed using anti-Myc (CST 2276) and anti-β-catenin (CST 8480). Both antibodies were diluted in blocking buffer 1:1000 and incubated overnight at 4 C with the membrane. […]

[2] = tested on: LNCaP-abl and LNCaP-95 cells; assay: RT-qPCR of Wnt and AR target genes; format: cell-based; conditions: 10 µM, 24 h
Protocol: To test the effect of 13 in a model of prostate cancer, we used the LNCaP-abl and LNCaP-95 cell lines. These cell lines were derived from androgen-sensitive LNCaP cells, and passaged in androgen-deprived media to mimic the development of castration resistance in patient tumors[54],[55]. We first isolated mRNA from LNCaP-abl and LNCaP-95 cells treated with vehicle, 10 µM 13 and linear 13 for 24 h to check the expression of endogenous Wnt and AR target genes (Fig. 4a). […] AR-V7 is particularly challenging to target as most AR antagonists target the ligand binding domain. […] To check if the changes in Wnt and AR target gene expression translated into effects on growth, the viability of LNCaP-abl and LNCaP-95 cells was determined after 5 days of treatment (Fig. 4b).
Data are presented as mean and SD (n = 3) of three independent experiments (a) or representative of three independent experiments (b, c).
LNCaP-abl and LNCaP-95 cells were cultured in indicator free RPMI 1640 media (Life) supplemented with 10% charcoal stripped FBS, 1% pennicillin/streptomycin, and 1% L-Glutamine. HEK-293 Cells were cultured in DMEM media (Life) supplemented with 10%FBS and 1% pennicillin/streptomycin. A549 and U2OS cells were cultured in RPMI 1640 media (Life) and McCoy’s 5 A modified media (Life), respectively, both supplemented with 10%FBS and 1% pennicillin/streptomycin. LNCaP-abl, and LNCaP-95 cell lines were generous gifts from Z. Culig (Innsbruck Medical University, Austria) and J. Isaacs (Johns Hopkins University, Baltimore, MD), respectively. Cell lines were authenticated by STR profiling (Genetica Cell Line Testing; Burlington, NC). A549 and U2OS were purchased from ATCC (product numbers CCL-185 and HTB-96). Cell lines were routinely screened for mycoplasma. Luciferase assays were conducted using stably transfected TOP-flash and 3xARE LNCaP-abl cell lines. For the Wnt pathway, TOP-Flash LNCaP-abl cells were treated with 1 nM siAPC (a 1:1:1 mix of Ambion Silencer Silect siAPC RNA, ID#s s1433, s1434, s1435) for 24 h and seeded into 384-well plates at 5000 cells/well, followed by 24 h of treatment with compound. For the AR-pathway, 3xARE LNCaP-abl cells were seeded into 384-well plates at 5000 cells per well, treated for 48 h with compound, with the addition of R1881 for the final 8 h. Both were measured using the ONE-Glo detection kit (Promega) and data is standardized to CellTiter-Fluor (Promega) viability readings to account for potential variations in well to well cell number. Control Wnt inhibitors were purchased from Sigma with the exception of PRI-724 which was purchased from Selleckchem. Co-immunoprecipitation was carried out using HEK293 cells transfected with either myc-TCF (addgene #32738) or myc-TCF dominant negative (addgene #32739) followed by 48 h of treatment with compound. Cells were lysed using Triton lysis buffer and 1 mg total protein was incubated overnight at 4 C with 40 µl anti-cMyc magnetic beads (Thermo). Total protein concentration in cell lysates were determined using Pierce Rapid Gold BCA Protein Assay Kit (Thermo). The beads were washed 3× with lysis buffer then boiled in 2X sample loading dye.

[3] = tested on: Wnt signaling in zebrafish embryos; conditions: zebrafish, in vivo
Protocol: To evaluate the efficacy of 13 in vivo, we utilized a Danio rerio (zebrafish) model. […] To test this, BIO was added to zebrafish embryos at 6 hpf with and without 13 as described in Fig. 6a.
The zebrafish phenotypic assay was conducted using wild-type zebrafish embryos seeded into a 96-well round bottom plate at 4 hpf in 50 µl of Fish Water (60 mg/l sea salt, Instant Ocean, Blacksburg, VA, USA) supplemented with 1 mg per L Methylene Blue (Sigma-Aldrich). The embryos were not dechorionated. At 50% epiboly, roughly 5.5 hpf, 50 µl of 30 µM 13 or Linear 13 was added. About 30 min later at shield stage, 50 µl of 6 nM (3×) BIO was added. The embryos were then visualized for the presence of eyes and imaged at 30 hpf. Zebrafish embryos were randomly assigned to non-blinded treatment groups, none were excluded. Sample size was determined with a power calculation to achieve statistical significance (alpha = 0.05, beta = 0.2) if only 60% of the fish had developed eyes.

Q: How did the “Wnt inhibitory activity (TOP-Flash luciferase)” value ([1]; 10 µM compound, relative to vehicle) turn out when COc1ccc([C@H](C)N2CC(=O)N[C@H](C)C(=O)N(CCc3ccccc3Oc3ccccc3)CC(=O)N(c3cc(OC)cc(OC)c3)CC(=O)N(CCCOC(C)C)CC(=O)N([C@@H](C)c3ccc(OC)cc3)CC2=O)cc1 [Compound 13] (cyclo([dA][N(2-(2-PhOPh)Et)Gly][Gly(N-3,5-(OMe)2-Ph)][N((CH2)3OiPr)Gly][X1][X1])) was run?
A: The value was “more effective”.

Q: And the IC50 ([1]; TOP-Flash LNCaP-abl cells, siAPC knockdown, 24 h compound, ± SD of three replicates, read-out: IC50 for Wnt luciferase inhibition)?
A: The IC50 was 105 nM.

Q: And the “AR mRNA” value [2]?
A: The value was “decreased”.

Q: And the AR-V7 transcription [2]?
A: Its AR-V7 transcription is “decreased”.

Q: And the “Cyclin D1 mRNA” value [2]?
A: The value was “decreased”.

Q: What about the E-cadherin transcription [2] of the same compound?
A: The E-cadherin transcription was “increased”.

Q: And the “FKBP5 mRNA” value [2]?
A: The value was “decreased”.

Q: What about the “PSA mRNA” value [2] of the same compound?
A: Its value is “decreased”.

Q: What about the “cMYC mRNA” value [2] of the same compound?
A: The value was “decreased”.

Q: And the “Harm to embryo development” value [3]?
A: The value was “does not otherwise harm embryo development”.

Reference: publication PMC6199279, “Design of Peptoid-peptide Macrocycles to Inhibit the β-catenin TCF Interaction in Prostate Cancer” (Nature Communications, 2018)
